From US12208160B2, “Pharmaceutical compositions comprising coated API” (Catalent U.K. Swindon Zydis Limited, priority 2020, dated 2025)

Assays:
[1] = Mid Volume Dissolution (MVD) 60-Minute Profile of freeze-dried finished product; format: physicochemical; details: within ~5 mins; note to FIG. 26
Description: This analytical method is used to determine the mid-volume dissolution of freeze-dried finished products. The method employs a Distek small volume conversion kit. The method employs the Pion Rainbow Dynamic Dissolution Monitor (RDDM) at 75 rpm, with pH 7.2 phosphate buffer as a dissolution medium. Analysis is by fibre optic UV detection using the Pion μDISS Profiler with a UV detection under the 2nd derivative function using a 2 mm pathlength. Pathlength, dissolution media and wavelength range will vary depending on the API properties. […] A five-point calibration Curve is set up on the Pion software. The amount of API reference standard weighed will be dependent on the API. The following is an example for Ibuprofen:
As per USP <711>—A small, loose piece of non-reactive material, such as not more than a few turns on wire helix, may be attached to the freeze-dried tablets that would otherwise float. Add one freeze-dried tablet to each of the six dissolution vessels. The six probes will measure the absorbance of the API in the vessels and determine the % drug dissolved based on the calibration curve.
An additional methodology Mid Volume Dissolution (MVD) based on the 60-minute profile for the coated API has been developed to be able to directly compare dissolution profiles of the coated API with the resulting finished product units. […]

[2] = Low volume dissolution of Acetaminophen raw material and coated Acetaminophen material; format: physicochemical; details: APAP
Description: This analytical method is used to determine the low volume dissolution of Acetaminophen raw material and coated Acetaminophen material. […] The following is the working standard 5-point calibration curve preparation for this Example. Calibration Point 1: Weigh accurately 50.0 mg of Acetaminophen reference standard into a 100 mL volumetric flask. Dissolve in approximately 80 mL of dissolution media and sonicate until fully dissolved. Dilute to volume with dissolution media mixing thoroughly. This is the calibration point 1 working standard solution (concentration: approximately 0.5 mg/mL). Calibration Point 2: Weigh accurately 100.0 mg of Acetaminophen reference standard into a 100 mL volumetric flask. Dissolve in approximately 80 mL of dissolution media and sonicate until fully dissolved. Dilute to volume with dissolution media mixing thoroughly. This is the calibration point 2 working standard solution (concentration: approximately 1.0 mg/mL). Calibration Point 3: Weigh accurately 200.0 mg of Acetaminophen reference standard into a 100 mL volumetric flask. Dissolve in approximately 80 mL of dissolution media and sonicate until fully dissolved. Dilute to volume with dissolution media mixing thoroughly. This is the calibration point 3 working standard solution (concentration: approximately 2.0 mg/mL). Calibration Point 4: Weigh accurately 500.0 mg of Acetaminophen reference standard into a 100 mL volumetric flask. Dissolve in approximately 80 mL of dissolution media and sonicate until fully dissolved. Dilute to volume with dissolution media mixing thoroughly. This is the calibration point 4 working standard solution (concentration: approximately 5.0 mg/mL). Calibration Point 5: Weigh accurately 550.0 mg of Acetaminophen reference standard into a 100 mL volumetric flask. Dissolve in approximately 80 mL of dissolution media and sonicate until fully dissolved (this standard solution may require slight heating to dissolve all Acetaminophen). If required, allow the solution to equilibrate to room temperature, dilute to volume with dissolution media and mix thoroughly. This is the calibration point 5 working standard solution (concentration: approximately 5.5 mg/mL). Acetaminophen raw material: Six samples are analyzed. […] The individual software potencies for each vessel will be input into the DissoPRO software at the start of experiment. Six samples are analyzed. For each sample, weigh accurately 125 mg of coated Acetaminophen material into a Pion low volume dissolution vessel. The individual software potencies for each vessel will be input into the DissoPRO software at the start of experiment. […] The Coated APAP has undergone coating at bench scale operation using the Resonance Acoustic Mixing manufacturing process. […] The slow release profile is indicative of achieving a successful coating and preventing the API from readily dissolving and therefore a taste masked API.

Row | SMILES | full release [1] | % Acetaminophen dissolved ([2]; 0.0 minutes) | % Acetaminophen dissolved ([2]; 5 minutes) | % Acetaminophen dissolved ([2]; 10 minutes) | % Acetaminophen dissolved ([2]; 15 minutes) | % Acetaminophen dissolved ([2]; 20 minutes) | % Acetaminophen dissolved ([2]; 25 minutes) | % Acetaminophen dissolved ([2]; 30 minutes) | equilibrium point (% dissolved) ([2]; within the first two minutes)
1 | CC(C)Cc1ccc(C(C)C(=O)O)cc1 (stereo not drawn) [Raw Material, Ibuprofen] | ~80% | – | – | – | – | – | – | – | –
2 | CC(=O)Nc1ccc(O)cc1 [Raw Material - AN190319, Acetaminophen] | – | 0% | 127% | 128% | 128% | 128% | 128% | 128% | over 100%
